Test results from PubChem BioAssay (NCI).
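These data come from cells grown in 96-well plates and exposed to compound for 48 hours at five concentrations. At the TGI there is no net growth.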

What was measured:
Experiment in all cases: NCI-60 cell line screen, 48 h
NCI-H226 lung = test system: NCI-H226 lung
MCF7 breast = test system: MCF7 breast
UACC-257 melanoma = test system: UACC-257 melanoma
ACHN renal = test system: ACHN renal
MDA-N = test system: MDA-N
SK-OV-3 ovarian = test system: SK-OV-3 ovarian
SF-295 CNS = test system: SF-295 CNS
SK-MEL-5 melanoma = test system: SK-MEL-5 melanoma
OVCAR-3 ovarian = test system: OVCAR-3 ovarian
PC-3 prostate = test system: PC-3 prostate
COLO 205 colon = test system: COLO 205 colon
NCI/ADR-RES ovarian = test system: NCI/ADR-RES ovarian
UACC-62 melanoma = test system: UACC-62 melanoma
OVCAR-5 ovarian = test system: OVCAR-5 ovarian
UO-31 renal = test system: UO-31 renal
786-0 renal = test system: 786-0 renal
MOLT-4 leukemia = test system: MOLT-4 leukemia
RPMI-8226 leukemia = test system: RPMI-8226 leukemia
K-562 leukemia = test system: K-562 leukemia
M14 melanoma = test system: M14 melanoma
TK-10 renal = test system: TK-10 renal
A549 NSCLC = test system: A549 NSCLC
IGROV1 ovarian = test system: IGROV1 ovarian
HCT-15 colon = test system: HCT-15 colon
MALME-3M melanoma = test system: MALME-3M melanoma
SK-MEL-2 melanoma = test system: SK-MEL-2 melanoma
HCT-116 colon = test system: HCT-116 colon
SF-539 CNS = test system: SF-539 CNS
CCRF-CEM leukemia = test system: CCRF-CEM leukemia
HT29 colon = test system: HT29 colon
HCC-2998 colon = test system: HCC-2998 colon
SN12C renal = test system: SN12C renal
NCI-H522 lung = test system: NCI-H522 lung
NCI-H23 lung = test system: NCI-H23 lung
HOP-62 NSCLC = test system: HOP-62 NSCLC
T-47D breast = test system: T-47D breast
SR leukemia = test system: SR leukemia
OVCAR-8 ovarian = test system: OVCAR-8 ovarian
HS 578T breast = test system: HS 578T breast
LOX IMVI melanoma = test system: LOX IMVI melanoma
U251 CNS = test system: U251 CNS
A498 renal = test system: A498 renal
KM12 colon = test system: KM12 colon
HL-60(TB) leukemia = test system: HL-60(TB) leukemia
EKVX NSCLC = test system: EKVX NSCLC
MDA-MB-231 breast = test system: MDA-MB-231 breast
OVCAR-4 ovarian = test system: OVCAR-4 ovarian
HOP-92 NSCLC = test system: HOP-92 NSCLC
RXF 393 renal = test system: RXF 393 renal
MDA-MB-435 = test system: MDA-MB-435
SK-MEL-28 melanoma = test system: SK-MEL-28 melanoma
NCI-H460 lung = test system: NCI-H460 lung
DU-145 prostate = test system: DU-145 prostate
SNB-75 CNS = test system: SNB-75 CNS
BT-549 breast = test system: BT-549 breast
SF-268 CNS = test system: SF-268 CNS
SW-620 colon = test system: SW-620 colon
SNB-19 CNS = test system: SNB-19 CNS
CAKI-1 renal = test system: CAKI-1 renal

Structure (SMILES): O=C(O)/C=C/c1ccc2c(c1)CC1(Cc3ccccc3C1)C2
- TGI (NCI-H226 lung): 99.4 µM
- TGI (MCF7 breast): > 100 µM
- TGI (UACC-257 melanoma): > 100 µM
- TGI (ACHN renal): > 100 µM
- TGI (MDA-N): > 100 µM
- TGI (SK-OV-3 ovarian): > 100 µM
- TGI (SF-295 CNS): > 100 µM
- TGI (SK-MEL-5 melanoma): > 100 µM
- TGI (OVCAR-3 ovarian): > 100 µM
- TGI (PC-3 prostate): > 100 µM
- TGI (COLO 205 colon): 52.3 µM
- TGI (NCI/ADR-RES ovarian): > 100 µM
- TGI (UACC-62 melanoma): > 100 µM
- TGI (OVCAR-5 ovarian): > 100 µM
- TGI (UO-31 renal): > 100 µM
- TGI (786-0 renal): > 100 µM
- TGI (MOLT-4 leukemia): > 100 µM
- TGI (RPMI-8226 leukemia): > 100 µM
- TGI (K-562 leukemia): > 100 µM
- TGI (M14 melanoma): > 100 µM
- TGI (TK-10 renal): > 100 µM
- TGI (A549 NSCLC): > 100 µM
- TGI (IGROV1 ovarian): > 100 µM
- TGI (HCT-15 colon): > 100 µM
- TGI (MALME-3M melanoma): > 100 µM
- TGI (SK-MEL-2 melanoma): 87.7 µM
- TGI (HCT-116 colon): 51.4 µM
- TGI (SF-539 CNS): > 100 µM
- TGI (CCRF-CEM leukemia): > 100 µM
- TGI (HT29 colon): > 100 µM
- TGI (HCC-2998 colon): > 100 µM
- TGI (SN12C renal): > 100 µM
- TGI (NCI-H522 lung): > 100 µM
- TGI (NCI-H23 lung): > 100 µM
- TGI (HOP-62 NSCLC): > 100 µM
- TGI (T-47D breast): > 100 µM
- TGI (SR leukemia): 62.3 µM
- TGI (OVCAR-8 ovarian): > 100 µM
- TGI (HS 578T breast): > 100 µM
- TGI (LOX IMVI melanoma): > 100 µM
- TGI (U251 CNS): > 100 µM
- TGI (A498 renal): > 100 µM
- TGI (KM12 colon): > 100 µM
- TGI (HL-60(TB) leukemia): 90.5 µM
- TGI (EKVX NSCLC): > 100 µM
- TGI (MDA-MB-231 breast): > 100 µM
- TGI (OVCAR-4 ovarian): > 100 µM
- TGI (HOP-92 NSCLC): > 100 µM
- TGI (RXF 393 renal): > 100 µM
- TGI (MDA-MB-435): > 100 µM

Structure (SMILES): CC(=O)NC1=NC(=O)/C(=C/c2ccc(/C=C3/C(=O)N=C(NC(C)=O)N3C)cc2)N1C
- TGI (NCI-H226 lung): > 100 µM
- TGI (MCF7 breast): > 100 µM
- TGI (UACC-257 melanoma): > 100 µM
- TGI (ACHN renal): > 100 µM
- TGI (MDA-N): > 100 µM
- TGI (SK-OV-3 ovarian): > 100 µM
- TGI (SF-295 CNS): > 100 µM
- TGI (SK-MEL-5 melanoma): > 100 µM
- TGI (OVCAR-3 ovarian): > 100 µM
- TGI (COLO 205 colon): > 100 µM
- TGI (NCI/ADR-RES ovarian): > 100 µM
- TGI (UACC-62 melanoma): > 100 µM
- TGI (SK-MEL-28 melanoma): > 100 µM
- TGI (OVCAR-5 ovarian): > 100 µM
- TGI (UO-31 renal): > 100 µM
- TGI (NCI-H460 lung): > 100 µM
- TGI (786-0 renal): > 100 µM
- TGI (MOLT-4 leukemia): > 100 µM
- TGI (DU-145 prostate): > 100 µM
- TGI (M14 melanoma): > 100 µM
- TGI (TK-10 renal): > 100 µM
- TGI (SNB-75 CNS): > 100 µM
- TGI (A549 NSCLC): > 100 µM
- TGI (IGROV1 ovarian): > 100 µM
- TGI (HCT-15 colon): > 100 µM
- TGI (BT-549 breast): > 100 µM
- TGI (SK-MEL-2 melanoma): > 100 µM
- TGI (HCT-116 colon): > 100 µM
- TGI (SF-539 CNS): > 100 µM
- TGI (SF-268 CNS): > 100 µM
- TGI (HT29 colon): > 100 µM
- TGI (HCC-2998 colon): > 100 µM
- TGI (SN12C renal): > 100 µM
- TGI (NCI-H23 lung): > 100 µM
- TGI (HOP-62 NSCLC): > 100 µM
- TGI (T-47D breast): > 100 µM
- TGI (SW-620 colon): > 100 µM
- TGI (SNB-19 CNS): > 100 µM
- TGI (OVCAR-8 ovarian): > 100 µM
- TGI (LOX IMVI melanoma): > 100 µM
- TGI (U251 CNS): > 100 µM
- TGI (CAKI-1 renal): > 100 µM
- TGI (A498 renal): > 100 µM
- TGI (KM12 colon): > 100 µM
- TGI (HL-60(TB) leukemia): > 100 µM
- TGI (EKVX NSCLC): > 100 µM
- TGI (MDA-MB-231 breast): > 100 µM
- TGI (OVCAR-4 ovarian): > 100 µM
- TGI (HOP-92 NSCLC): > 100 µM
- TGI (RXF 393 renal): > 100 µM
- TGI (MDA-MB-435): > 100 µM
